Source: US20260137819A1 (Radionetics Oncology, Inc., priority 2022, published 2026)

biological target: T1, human follicle-stimulating hormone receptor (FSHR) (Homo sapiens, UniProt P23945); assay: Measurement of agonist cAMP production by activation of human FSHR; format: cell-based; settings: CHO-K1 human FSHR cells, 30 minutes at 37° C., HTRF cAMP kit; read-out: hFSHR Agonist cAMP EC50
T1 construct: host or cells: CHO-K1
T1 sequence (P23945 18-695): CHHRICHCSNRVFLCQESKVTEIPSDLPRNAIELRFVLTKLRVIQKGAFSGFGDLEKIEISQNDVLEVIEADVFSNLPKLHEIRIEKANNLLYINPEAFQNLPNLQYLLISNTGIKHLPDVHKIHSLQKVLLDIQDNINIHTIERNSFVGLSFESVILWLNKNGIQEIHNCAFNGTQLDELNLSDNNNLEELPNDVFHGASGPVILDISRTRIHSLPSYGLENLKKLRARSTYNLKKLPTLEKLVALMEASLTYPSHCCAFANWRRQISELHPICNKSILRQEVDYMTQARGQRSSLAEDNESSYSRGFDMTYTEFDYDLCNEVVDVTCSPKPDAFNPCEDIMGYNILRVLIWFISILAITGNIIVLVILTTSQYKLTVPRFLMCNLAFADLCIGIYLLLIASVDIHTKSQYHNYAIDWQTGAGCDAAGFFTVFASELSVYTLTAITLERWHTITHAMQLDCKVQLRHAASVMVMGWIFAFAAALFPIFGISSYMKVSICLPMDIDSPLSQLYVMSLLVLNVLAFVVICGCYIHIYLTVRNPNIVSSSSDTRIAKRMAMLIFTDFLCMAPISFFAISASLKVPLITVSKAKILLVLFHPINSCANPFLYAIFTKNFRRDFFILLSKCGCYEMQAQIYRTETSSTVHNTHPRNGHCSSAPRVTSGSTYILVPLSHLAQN
Summary of the method: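 cAMP output was measured by HTRF after 30 min at 37 °C agonist exposure (0–10,000 nM final) in stably FSHR-transfected CHO-K1 cells. Lysate cAMP was read off a standard curve and fitted to obtain half-maximal EC50.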

Q: Which EC50 does the source give for COc1cc2c(cc1-c1cccc(NC(=O)CCC(=O)N(CCOCCOCCOCCOCCOCCC(=O)O)C3CCN(C(=O)CN4CCN(CC(=O)O)CCN(CC(=O)O)CCN(CC(=O)O)CC4)CC3)c1)-c1c(c(C(=O)N3CCOCC3(C)C)nn1-c1cc(Cl)cc(Cl)c1)CO2 [Compound 45, 2,2′,2″-(10-(2-(4-(N-(17-carboxy-3,6,9,12,15-pentaoxaheptadecyl)-4-((3-(1-(3,5dichlorophenyl)-3-(3,3-dimethylmorpholine-4-carbonyl)-7-methoxy-1,4-dihydrochromeno|4,3-clpyrazol-8-yl)phenyl)amino)-4-oxobutanamido)piperidin-1-yl)-2-oxoethyl)-1,4,7,10-tetraazacyclododecane-1,4,7-triyl)triacetic acid] here?
A: < 0.01 µM

Q: Which EC50 does the source give for COc1cc2c(cc1-c1cccc(NC(=O)CCC(=O)N(CC(=O)O)C3CCN(C(=O)CN4CCN(CC(=O)O)CCN(CC(=O)O)CCN(CC(=O)O)CC4)CC3)c1)-c1c(c(C(=O)N3CCOCC3(C)C)nn1-c1cc(Cl)cc(Cl)c1)CO2 [Compound 46, 2,2′,2″-(10-(2-(4-(N-(carboxymethyl)-4-((3-(1-(3,5-dichlorophenyl)-3-(3,3dimethylmorpholine-4-carbonyl)-7-methoxy-1,4-dihydrochromeno|4,3-clpyrazol-8-yl)phenyl)amino)-4-oxobutanamido)piperidin-1-yl)-2-oxoethyl)-1,4,7,10-tetraazacyclododecane-1,4,7-trivl)triacetic acid] here?
A: 0.01 to 0.1 µM

Q: With COc1cc2c(cc1-c1cccc(NC(=O)CCOCC(COCCC(=O)O)(COCCC(=O)O)NC(=O)CN3CCN(CC(=O)O)CCN(CC(=O)O)CCN(CC(=O)O)CC3)c1)-c1c(c(C(=O)N3CCOCC3(C)C)nn1-c1cc(Cl)cc(Cl)c1)CO2 [Compound 47, 2,2′,2″-(10-(2-((1,3-bis(2-carboxyethoxy)-2-((3-((3-(1-(3,5-dichlorophenyl)-3(3,3-dimethylmorpholine-4-carbonyl)-7-methoxy-1,4-dihydrochromeno|4,3-clpyrazol-8-yl)phenyl)amino)-3-oxopropoxy)methyl)propan-2-yl)amino)-2-oxoethyl)-1,4,7,10-tetraazacyclododecane-1,4,7-triyl)triacetic acid] as the molecule, how does the EC50 read?
A: 0.01 to 0.1 µM

Q: How did the EC50 turn out when COc1cc2c(cc1-c1cncc(NC(=O)CCC(=O)NC[C@H](NC(=O)CN3CCN(CC(=O)O)CCN(CC(=O)O)CCN(CC(=O)O)CC3)C(=O)N3CCN(CCS(=O)(=O)O)CC3)c1)-c1c(c(C(=O)N3CCOCC3(C)C)nn1-c1cc(F)cc(F)c1)CO2 [Compound 49, (S)-2,2′,2″-(10-(2-((3-(4-((5-(1-(3,5-difluorophenyl)-3-(3,3-dimethylmorpholine-4-carbonyl)-7-methoxy-1,4-dihydrochromeno[4,3-c]pyrazol-8-yl)pyridin-3-yl)amino)-4-oxobutanamido)-1-oxo-1-(4-(2-sulfoethyl)piperazin-1-yl)propan-2-yl)amino)-2-oxoethyl)-1,4,7,10-tetraazacyclododecane-1,4,7-triyl)triacetic acid--formic acid (1/1)] was run?
A: > 0.1 µM

Q: For COc1cc2c(cc1-c1cccc(NC(=O)CCC(=O)NCCCC[C@@H](NC(=O)[C@@H](CC(=O)O)NC(=O)[C@@H](CC(=O)O)NC(=O)CCNC(=O)CN3CCN(CC(=O)O)CCN(CC(=O)O)CCN(CC(=O)O)CC3)C(N)=O)c1)-c1c(c(C(=O)N3CCOCC3(C)C)nn1-c1cc(Cl)cc(Cl)c1)CO2 [Compound 51, 2,2′,2″-(10-((8R,11R,14R)-14-carbamoyl-8,11-bis(carboxymethyl)-23-((3-(1(3,5-dichlorophenyl)-3-(3,3-dimethylmorpholine-4-carbonyl)-7-methoxy-1,4-dihydrochromeno[4,3-c]pyrazol-8-yl)phenyl)amino)-2,6,9,12,20,23-hexaoxo-3,7,10,13,19-pentaazatricosyl)-1,4,7,10-tetraazacyclododecane-1,4,7-triyl)triacetic acid], which EC50 is on record?
A: < 0.01 µM

Q: Which EC50 does the source give for COc1cc2c(cc1-c1cncc(NC(=O)CCOCCOCCNC(=O)CN3CCN(CC(=O)O)CCN(CC(=O)O)CCN(CC(=O)O)CC3)c1)-c1c(c(C(=O)N3CCOCC3(C)C)nn1-c1cc(Cl)cc(Cl)c1)CO2 [Compound 52, 2,2′,2″-(10-(2-((2-(2-(3-((5-(1-(3,5-dichlorophenyl)-3-(3,3-dimethylmorpholine-4-carbonyl)-7-methoxy-1,4-dihydrochromeno[4,3-c]pyrazol-8-yl)pyridin-3-yl)amino)-3-oxopropoxy)ethoxy)ethyl)amino)-2-oxoethyl)-1,4,7,10-tetraazacyclododecane-1,4,7-triyl)triacetic acid--2,2,2-trifluoroacetic acid (1/1)] here?
A: < 0.01 µM

Q: COc1cc2c(cc1-c1cncc(NC(=O)CCOCCNC(=O)CN3CCN(CC(=O)O)CCN(CC(=O)O)CCN(CC(=O)O)CC3)c1)-c1c(c(C(=O)N3CCOCC3(C)C)nn1-c1cc(Cl)cc(Cl)c1)CO2 [Compound 53, 2,2′,2″-(10-(2-((2-(3-((5-(1-(3,5-dichlorophenyl)-3-(3,3-dimethylmorpholine-4-carbonyl)-7-methoxy-1,4-dihydrochromeno[4,3-c]pyrazol-8-yl)pyridin-3-yl)amino)-3-oxopropoxy)ethyl)amino)-2-oxoethyl)-1,4,7,10-tetraazacyclododecane-1,4,7-triyl)triacetic acid--2,2,2-trifluoroacetic acid (1/1)] was tested. Which EC50 did it give?
A: < 0.01 µM

Q: Which EC50 does the source give for COc1cc2c(cc1-c1cncc(NC(=O)CCOCCOCCNC(=O)C3OC(CNC(=O)CN4CCN(CC(=O)O)CCN(CC(=O)O)CCN(CC(=O)O)CC4)C(O)C(O)C3O)c1)-c1c(c(C(=O)N3CCOCC3(C)C)nn1-c1cc(Cl)cc(Cl)c1)CO2 [Compound 54, 2,2′,2″-(10-(2-((((2S,3R,4R,5R,6S)-6-((2-(2-(3-((5-(1-(3,5-dichlorophenyl)-3-(3,3-dimethylmorpholine-4-carbonyl)-7-methoxy-1,4-dihydrochromeno[4,3-c]pyrazol-8-yl)pyridin-3-yl)amino)-3-oxopropoxy)ethoxy)ethyl)carbamoyl)-3,4,5-trihydroxytetrahydro-2H-pyran-2-yl)methyl)amino)-2-oxoethyl)-1,4,7,10-tetraazacyclododecane-1,4,7-triyl)triacetic acid--2,2,2-trifluoroacetic acid (1/1)] here?
A: < 0.01 µM

same assay, conditions: hFSHR Agonist cAMP EC50, CHO-K1 human FSHR cells, 30 minutes at 37° C., HTRF cAMP kit

Q: COc1cc2c(cc1-c1cncc(NC(=O)CCNC(=O)[C@@H](CCCCNC(=O)CN3CCN(CC(=O)O)CCN(CC(=O)O)CCN(CC(=O)O)CC3)NC(=O)CN3CCN(CCS(=O)(=O)O)CC3)c1)-c1c(c(C(=O)N3CCOCC3(C)C)nn1-c1cc(F)cc(F)c1)CO2 [Compound 50, (R)-2,2′,2″-(10-(2-((6-((3-((5-(1-(3,5-difluorophenyl)-3-(3,3-dimethylmorpholine-4-carbonyl)-7-methoxy-1,4-dihydrochromeno[4,3-c]pyrazol-8-yl)pyridin-3-yl)amino)-3-oxopropyl)amino)-6-oxo-5-(2-(4-(2-sulfoethyl)piperazin-1-yl)acetamido)hexyl)amino)-2-oxoethyl)-1,4,7,10-tetraazacyclododecane-1,4,7-triyl)triacetic acid--formic acid (1/1)] was tested. Which EC50 did it give?
A: > 0.1 µM
